Experimental data published in paper PMC8510480, “Searching Anti-Zika Virus Activity in 1H-1,2,3-Triazole Based Compounds” (Molecules, 2021).

Experiments:
[1] = Cytotoxicity test with MTT method in Vero cells; type: cell-based, African green monkey; conditions: African green monkey, 5 days, read-out: CC50 (50% cytotoxic concentration)
Protocol: (§1) The cytotoxicity of compounds 1–7 to Vero cells, an epithelial cell line derived from the kidney of an African green monkey, was tested using the 3-(4,5-dimethylthiazol-2-yl)-2,5-diphenyltetrazolium bromide (MTT) method. […] Based on CC20 values, which was the maximum concentration used for antiviral screening, 3b compound was the least toxic with a value of 527.2 µM. Compounds 2a and 2b were the most cytotoxic with values of 8.87 µM and 9.89 µM, respectively. […] The results from compounds 3a, 3b and 4a, 4b ranged from 40.69 to 527.20 µM. […] The presence of phthalimide group or sugar increases the values of CC20 and CC50 (Table 2 and Supplementary Material: Figure S1).
(§2) 96-well plates with 1 × 10^4 cell/well were used in this assay and prepared 24 h previously. The compounds were diluted in a 2:1 ratio so that a maximum of 0.8% DMSO was used. The concentrations used were 800, 400, 200, 100, 50, 25 and 12.5 µM. Dilutions were added to the wells in triplicate and incubated at 37 °C and 5% CO2 atmosphere. After 5 days, the wells were emptied and a 50 µL of 1 mg/mL MTT (3-(4,5-dimethylthiazol-2-yl)-2,5-diphenyltetrazolium bromide) (Sigma-Aldrich) solution was added, and the cells were incubated for 3–4 h for formation of formazan crystals through the mitochondria of viable cells. Then, medium was removed and 100 µL DMSO was added to the wells to solubilize the formazan crystals. With the aid of an incubator Tecnal TE-420 (Tecnal Equipamentos Científicos, Piracicaba, São Paulo, Brazil), the plates were homogenized at 120 RPM at 37 °C and the optical densities were read at 570 nm on a spectrophotometer BioTekTM ELx800TM (BioTek Instruments, Winooski, VT, USA).
(§3) The determination of the CC20 and CC50 values was obtained through the linear regression analysis of the XY graph generated by the values of the concentrations used in the test and the triplicate values of the viability. In the post-infection and pre-treatment tests, ANOVA and Dunnett tests were used, considering […] as the minimum significance value. All tests were performed in GraphPad Prism v.6.0 program (GraphPad Software, Inc., San Diego, CA, USA).

[2] = system: Vero cells; experiment: Cytotoxicity test with MTT method in Vero cells; type: cell-based, African green monkey; conditions: 5 days
Protocol: as §1, §2, §3

[3] = system: ZIKV; experiment: Screening test for anti-ZIKV activity (post-infection, compounds at CC20, TCID50 titration); type: cell-based, Zika virus; conditions: ZIKV MOI 0.1, compound at CC20, 5 days, TCID50, Vero cells
Protocol: The antiviral activities of the compounds were evaluated by infecting Vero cells with ZIKV and then treating them with the testing molecules. Virus titer in the supernatants of treated wells and its comparison with the negative (cell + virus) and the positive 6-methylmercaptopurine riboside (6MMPr) controls allowed for the determination of the antiviral effect.
Figure 4 Graphic result of all triazole derivates in the screening test for anti-ZIKV activity. The screening test was made for post-infection with ZIKV MOI 0.1 and treated with CC20 values from heterocyclic compounds discovered in the cytotoxicity test. After five days, the supernatant was collected and titrated by TCID50 method. The experiment was conducted in triplicates and values are the mean and the standard deviation (SD). […]
(§4) 96-well plates with 1 × 10^4 cell/well were used in this assay and prepared 24 h previously. […] The reading was performed in an inverted optical microscope AE2000, Motic (Motic, Kowloon Bay, Hong Kong) counting positives wells by the presence of cytopathic effect and the determination of the sample title was performed with the aid of the Microsoft Office Excel program (Microsoft® Office, Redmond, WA, USA).
The screening of the compounds was carried out with the CC20 value (µM) to determine the most viable compounds for more detailed antiviral tests. […] The samples were then titrated and analysed statistically.

[4] = system: ZIKV; experiment: Pre-treatment test to ZIKV in Vero cells; type: cell-based, Zika virus; conditions: 1 h pre-treatment at 136.90, 68.45, 34.22 and 17.11 µM, then ZIKV MOI 0.1, 5 days
Protocol: Since compound 4b was the only one in the series with activity against ZIKV, further experiments were conducted to elucidate its mechanism of action in cells that were pre-treated. To this, cells were pre-treated with varying concentrations of compound 4b, washed, and then infected with ZIKV. The concentrations used were chosen with the aim to preserve cellular viability and, thus, the maximum concentration was the previously determined CC20 value (136.90, 68.45, 34.22 and 17.11 µM).
Figure 5 Graphic result for compound 4b in the pre-treatment test to ZIKV. Vero cells in a 48-well cell plate were treated with 4b in different concentrations and after 1 h the supernatant was discarded. Cells were washed with PBS 1X, ZIKV MOI 0.1 was inoculated, and the plate was incubated again. After five days, the supernatant was collected and titrated by TCID50 method. The experiment was conducted in triplicates and values are the mean and the SD. […]
as §4, with “USA). […]” for “USA).”

O=C1C(Br)=C(NCc2cn(CN3C(=O)c4ccccc4C3=O)nn2)C(=O)c2ccccc21 [Compound 4b]
CC50 at 5 days [1]: 330 µM
CC20 (20% cytotoxic concentration) [2]: 136.90 µM
reduction in viral titer vs non-treated control [3]: statistically significant reduction in viral titer
change in virus titers vs negative control [4]: no significant change in virus titers
